The results in this text go back to EP4786484A1, “CYCLIC PEPTIDE COMPOUND AND USE THEREOF” (Shenzhen Zhongge Biological Technology Co., Ltd., priority 2023, dated 2026).

Residues, ends and D or L forms follow the SMILES beside them.

Holding throughout (type): cell-based, human
Experiment [1] deals with Collagen I (type I collagen). The experiment is described as follows: Collagen I elevation effect in fibroblasts (ELISA). More on the design: Collagen I elevation effect in the fibroblasts: unit not given here. The settings on record: 1 µM, 24 h; for Collagen I elevation effect in the fibroblasts: ELISA, Blank control (BC) 35.6; for type I collagen (Collagen I) content compared to the BC: result in words. From the text: (§1) B. Collagen I (type I collagen) elevation effect in fibroblasts, hyaluronic acid (HA) elevation effect in fibroblasts, and elastin (ELN) elevation effect in fibroblasts
(§2) Test materials: Fibroblasts of human origin (Guangdong Boxi Biotechnology Co., Ltd., Lot No. Fb20081902), DMEM culture medium (Gibco, 23042301, expiration date 230522), PBS (Solarbio, P1010), TGF-β1 (Peprotech, 230504), Collagen I ELISA Kit (Cusabio, B21025824), Elastin ELISA kit (Abcam, GR3446070-2), HA ELISA kit (RD, P325066). CO2 incubator (Thermo, 1501), super-clean bench (AIRTECH, SW-CJ-1F), microplate reader (BioTek, Epoch).
(§3) Test methods: • 1) Inoculation: After cell resuscitation, the cells were inoculated into 6-well plates when the plating rate reached around 60%, and were incubated overnight in an incubator (37°C, 5% CO2). • 2) Formulation of solutions: The cyclic peptide compounds in the sample group, PC2 (Biotinoyl-GHK, [drawing 2] ) and PC3 [drawing 3] in the positive reference group were all at the concentration of 1 µM, and the test substance working solutions were formulated. Only the cell culture medium was added for the blank control group (BC). • 3) Administration: When the cell plating rate in the 6-well plates reached 40% to 60%, administration was performed at 2 mL per well. 3 duplicate wells were set for each group. Incubation was performed in an incubator (37°C, 5% CO2) for 24 h. • 4) ELISA assay: The ELISA assay was performed according to the instructions of the ELISA kit, with the detection indicators being Collagen I elevation effect in the fibroblasts, HA elevation effect in the fibroblasts, and elastin elevation effect in the fibroblasts.

A further experiment deals with elastin (ELN). Put plainly: Elastin (ELN) elevation effect in fibroblasts (ELISA). On the set-up: Elastin elevation effect in the fibroblasts: unit not given here. The note with it: 1 µM, 24 h; for Elastin elevation effect in the fibroblasts: ELISA, Blank control (BC) 756.52; for elastin content compared to the BC: result in words.
Source text: as §1, §2, §3

Another experiment concerns hyaluronic acid (HA). The experiment is described as follows: Hyaluronic acid (HA) elevation effect in fibroblasts (ELISA). The settings on record: 1 µM, 24 h; for HA elevation effect in the fibroblasts: ELISA, Blank control (BC) 1402.44; for hyaluronic acid (HA) content compared to the BC: result in words. More on the design: HA elevation effect in the fibroblasts: unit not given here.
Source text: as §1, §2, §3

As for `CC[C@H](C)[C@@H]1NC(=O)[C@H](CCCCN)NC(=O)[C@H](Cc2c[nH]cn2)NC(=O)CNC(=O)[C@@H]2CCCN2C(=O)[C@H](Cc2c[nH]c3ccccc23)NC1=O` [compound 232] (cyclo(GHKIWP)), in experiment [1], the “Collagen I elevation effect in the fibroblasts” value (“Collagen I elevation effect” below) stood at 67.93 and the “type I collagen (Collagen I) content compared to the BC” value (“type I collagen … compared to the BC” for short) is “significant increase”. For the same molecule, in the experiment on elastin (ELN), the “Elastin elevation effect in the fibroblasts” value (shortened to “Elastin elevation effect”) stood at 1001.84 and the “elastin content compared to the BC” value is on record as “significant increase”.
Take `CC(C)[C@@H]1NC(=O)[C@H](C)NC(=O)[C@H](Cc2ccccc2)NC(=O)[C@H](CCCCN)NC(=O)[C@H](Cc2c[nH]cn2)NC(=O)CNC1=O` [compound 414] (cyclo(AVGHKF)): in experiment [1], the “Collagen I elevation effect” value worked out at 40.54 and the “type I collagen … compared to the BC” value is on record as “significant increase”. For the same molecule, in the experiment on hyaluronic acid (HA), the “HA elevation effect in the fibroblasts” value is given as 1926.61 and the “hyaluronic acid (HA) content compared to the BC” value is “significant increase”. In addition, in the experiment on elastin (ELN), the “Elastin elevation effect” value was determined as 1124.58 and the “elastin content compared to the BC” value was “significant increase”.
Turning to `CC[C@H](C)[C@@H]1NC(=O)[C@H](Cc2ccccc2)NC(=O)[C@H](CC(C)C)NC(=O)[C@H](CCCCN)NC(=O)[C@H](Cc2c[nH]cn2)NC(=O)CNC1=O` [compound 291] (cyclo(FIGHKL)), in the experiment with hyaluronic acid (HA), the “HA elevation effect in the fibroblasts” value worked out at 2477.91 and the “hyaluronic acid (HA) content compared to the BC” value was “significant increase”. In addition, in the experiment with elastin (ELN), the “Elastin elevation effect” value is 1177.19 and the “elastin content compared to the BC” value is on record as “significant increase”.
For the molecule `C[C@@H]1NC(=O)[C@H](CCCCN)NC(=O)[C@H](Cc2c[nH]cn2)NC(=O)CNC(=O)[C@@H]2CCCN2C(=O)[C@H](Cc2ccccc2)NC1=O` [compound 52] (cyclo(AFPGHK)), in the experiment on hyaluronic acid (HA), the “HA elevation effect in the fibroblasts” value was determined as 2900.83 and the “hyaluronic acid (HA) content compared to the BC” value is “significant increase”. In addition, in the experiment on elastin (ELN), the “Elastin elevation effect” value came out at 1043.27 and the “elastin content compared to the BC” value is listed as “significant increase”.
On to `CSCC[C@@H]1NC(=O)[C@@H]2CCCN2C(=O)[C@H](C(C)C)NC(=O)[C@H](CCCCN)NC(=O)[C@H](Cc2c[nH]cn2)NC(=O)CNC1=O` [compound 707] (cyclo(GHKVPM)), for which, in experiment [1], the “Collagen I elevation effect” value is given as 66.21 and the “type I collagen … compared to the BC” value is reported as “significant increase”.
On to `CC(C)C[C@@H]1NC(=O)[C@H](CCCCN)NC(=O)[C@H](Cc2c[nH]cn2)NC(=O)CNC(=O)[C@@H]2CCCN2C(=O)[C@H](C)NC1=O` [compound 250] (cyclo(APGHKL)), for which, in experiment [1], the “Collagen I elevation effect” value is 55.85 and the “type I collagen … compared to the BC” value was “significant increase”. Further, in the experiment on hyaluronic acid (HA), the “HA elevation effect in the fibroblasts” value worked out at 2142.56 and the “hyaluronic acid (HA) content compared to the BC” value is recorded as “significant increase”. In the experiment on elastin (ELN), the “Elastin elevation effect” value is reported as 1051.64 and the “elastin content compared to the BC” value is “significant increase”.
As to `CC[C@H](C)[C@@H]1NC(=O)[C@H](CCCCN)NC(=O)[C@H](Cc2c[nH]cn2)NC(=O)CNC(=O)[C@@H]2CCCN2C(=O)[C@H](CC(C)C)NC1=O` [compound 196] (cyclo(GHKILP)), in the experiment with hyaluronic acid (HA), the “HA elevation effect in the fibroblasts” value is 2305.13 and the “hyaluronic acid (HA) content compared to the BC” value is on record as “significant increase”. Moreover, in the experiment on elastin (ELN), the “Elastin elevation effect” value was 1175.6 and the “elastin content compared to the BC” value was “significant increase”.
On to `CC(C)C[C@@H]1NC(=O)[C@H](CCCCN)NC(=O)[C@H](Cc2c[nH]cn2)NC(=O)CNC(=O)[C@H](C(C)C)NC(=O)[C@H](Cc2ccccc2)NC1=O` [compound 297] (cyclo(FVGHKL)), for which, in experiment [1], the “Collagen I elevation effect” value is recorded as 52.28 and the “type I collagen … compared to the BC” value was “significant increase”. Moreover, in the experiment on hyaluronic acid (HA), the “HA elevation effect in the fibroblasts” value is given as 2212.6 and the “hyaluronic acid (HA) content compared to the BC” value is “significant increase”. In the experiment with elastin (ELN), the “Elastin elevation effect” value was determined as 923.52 and the “elastin content compared to the BC” value was “significant increase”.
In the case of `CC(C)[C@@H]1NC(=O)[C@H](CCCCN)NC(=O)[C@H](Cc2c[nH]cn2)NC(=O)CNC(=O)[C@H](Cc2c[nH]c3ccccc23)NC(=O)[C@@H]2CCCN2C1=O` [compound 710] (cyclo(GHKVPW)), in experiment [1], the “Collagen I elevation effect” value was 110.87 and the “type I collagen … compared to the BC” value is “significant increase”. Moreover, in the experiment with elastin (ELN), the “Elastin elevation effect” value stood at 1207.29 and the “elastin content compared to the BC” value is listed as “significant increase”.
For `CC(C)C[C@@H]1NC(=O)[C@H](CCCCN)NC(=O)[C@H](Cc2c[nH]cn2)NC(=O)CNC(=O)[C@H](C)NC(=O)[C@H](Cc2ccccc2)NC1=O` [compound 289] (cyclo(AGHKLF)), in experiment [1], the “Collagen I elevation effect” value is recorded as 41 and the “type I collagen … compared to the BC” value is “significant increase”. For the same molecule, in the experiment with hyaluronic acid (HA), the “HA elevation effect in the fibroblasts” value turned out to be 1978.48 and the “hyaluronic acid (HA) content compared to the BC” value was “significant increase”. For the same molecule, in the experiment on elastin (ELN), the “Elastin elevation effect” value was found to be 1034.59 and the “elastin content compared to the BC” value is reported as “significant increase”.
Turning to `CSCC[C@@H]1NC(=O)[C@H](CCCCN)NC(=O)[C@H](Cc2c[nH]cn2)NC(=O)CNC(=O)[C@@H]2CCCN2C(=O)CNC1=O` [compound 340] (cyclo(GHKMGP)), in experiment [1], the “Collagen I elevation effect” value is reported as 90.07 and the “type I collagen … compared to the BC” value was “significant increase”. In addition, in the experiment on elastin (ELN), the “Elastin elevation effect” value turned out to be 1304.87 and the “elastin content compared to the BC” value is given as “significant increase”.
As for `CC[C@H](C)[C@@H]1NC(=O)[C@H](CCCCN)NC(=O)[C@H](Cc2c[nH]cn2)NC(=O)CNC(=O)[C@@H]2CCCN2C(=O)[C@H](Cc2ccccc2)NC1=O` [compound 214] (cyclo(FPGHKI)), in experiment [1], the “Collagen I elevation effect” value came out at 42.51 and the “type I collagen … compared to the BC” value is recorded as “significant increase”. Further, in the experiment on hyaluronic acid (HA), the “HA elevation effect in the fibroblasts” value stood at 1965.3 and the “hyaluronic acid (HA) content compared to the BC” value is recorded as “significant increase”. Also, in the experiment on elastin (ELN), the “Elastin elevation effect” value is listed as 1050.82 and the “elastin content compared to the BC” value was “significant increase”.
As to `CC[C@H](C)[C@@H]1NC(=O)[C@H](CC(C)C)NC(=O)[C@H](CCCCN)NC(=O)[C@H](Cc2c[nH]cn2)NC(=O)CNC(=O)[C@@H]2CCCN2C1=O` [compound 268] (cyclo(GHKLIP)), in experiment [1], the “Collagen I elevation effect” value is given as 61.46 and the “type I collagen … compared to the BC” value was “significant increase”.
As for `CC[C@H](C)[C@@H]1NC(=O)[C@H](CCCCN)NC(=O)[C@H](Cc2c[nH]cn2)NC(=O)CNC(=O)[C@@H]2CCCN2C(=O)[C@H](CCSC)NC1=O` [compound 205] (cyclo(GHKIMP)), in experiment [1], the “Collagen I elevation effect” value is 49.25 and the “type I collagen … compared to the BC” value is “significant increase”. Further, in the experiment with hyaluronic acid (HA), the “HA elevation effect in the fibroblasts” value was 2641.21 and the “hyaluronic acid (HA) content compared to the BC” value is reported as “significant increase”. For the same molecule, in the experiment with elastin (ELN), the “Elastin elevation effect” value came out at 1074.17 and the “elastin content compared to the BC” value is reported as “significant increase”.
